Measured values: article PMC11676667, “Pharmacokinetics of Oral Cannabinoid Δ8-Tetrahydrocannabivarin and Its Main Metabolites in Healthy Participants” (Pharmaceuticals, 2024)
Read-outs that look alike come from different tables or passages of the source.

Assay: Plasma pharmacokinetics after single oral dose of Δ8-THCV in MCT oil (LC-MS/MS, non-compartmental analysis)
Type: in vivo, human
Parameters: Clast (last quantifiable concentration): unit not given here
Conditions: for Clast (last quantifiable concentration) / tlast (time to last quantifiable concentration) / concentration at 0.5 h / concentration at 1 h / concentration at 2 h / concentration at 4 h / concentration at 6 h / concentration at 8 h / AUC(0-t) / Cmax / MRT / Tmax: plasma; for plasma concentration: Predose; for concentration at 0.5 h / concentration at 1 h / concentration at 2 h / concentration at 4 h / concentration at 6 h / concentration at 8 h / AUC(0-t) / Cmax / MRT / Tmax: human; for concentration at 0.5 h / concentration at 1 h / concentration at 2 h / concentration at 4 h / concentration at 6 h / concentration at 8 h: oral; for AUC(0-t) / Cmax / MRT / Tmax: po; for MRT: read-out: MRT (mean residence time); for Tmax: read-out: tmax
How it was run: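 Healthy participants received single oral Δ8-THCV in MCT oil (50 mg/mL; 12.5-200 mg, or placebo) after a high-fat, high-calorie breakfast, with ≥1-week washout. Plasma (K2EDTA) sampled predose and 0.5-8 h post-dose, assayed by validated LC-MS/MS including metabolites; PK by non-compartmental analysis, sub-LLOQ values set to 0.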

[1] = 100 mg single oral Δ8-THCV in MCT oil, Mean (±SD)
[2] = 100 mg single oral Δ8-THCV in MCT oil, Median (Range)
[3] = 200 mg single oral Δ8-THCV in MCT oil, Mean (±SD)
[4] = 200 mg single oral Δ8-THCV in MCT oil, Median (Range)
[5] = 12.5 mg, 12.5 mg Δ8-THCV dose, Mean (SD, %CV)
[6] = 12.5 mg, 12.5 mg Δ8-THCV dose, Median (IQ Range)
[7] = 25 mg, 25 mg Δ8-THCV dose, Mean (SD, %CV)
[8] = 25 mg, 25 mg Δ8-THCV dose, Median (IQ Range)
[9] = 50 mg, 50 mg Δ8-THCV dose, Mean (SD, %CV)
[10] = 50 mg, 50 mg Δ8-THCV dose, Median (IQ Range)
[11] = 100 mg, 100 mg Δ8-THCV dose, Mean (SD, %CV)
[12] = 100 mg, 100 mg Δ8-THCV dose, Median (IQ Range)
[13] = 200 mg, 200 mg Δ8-THCV dose, Mean (SD, %CV)
[14] = 200 mg, 200 mg Δ8-THCV dose, Median (IQ Range)
[15] = 100 mg, 100 mg single oral Δ8-THCV in MCT oil, Mean (±SD)
[16] = 100 mg, 100 mg single oral Δ8-THCV in MCT oil, Median (Range)
[17] = 200 mg, 200 mg single oral Δ8-THCV in MCT oil, Mean (±SD)
[18] = 200 mg, 200 mg single oral Δ8-THCV in MCT oil, Median (Range)

SMILES: CCCc1cc(O)c2c(c1)OC(C)(C)[C@@H]1CCC(C)=C[C@@H]21 [Δ9-THCV, Δ9-tetrahydrocannabivarin]
- Clast (last quantifiable concentration) [1]: 1.1 (±0.5)
- tlast (time to last quantifiable concentration) [1]: 4.8 (±1.5)
- Clast (last quantifiable concentration) [2]: 0.8 (0.5–1.9)
- tlast (time to last quantifiable concentration) [2]: 5 (2–6)
- Clast (last quantifiable concentration) [3]: 1.5 (±1)
- tlast (time to last quantifiable concentration) [3]: 6.2 (±2.1)
- Clast (last quantifiable concentration) [4]: 1.4 (0.5–4.1)
- tlast (time to last quantifiable concentration) [4]: 6 (2–8)
- plasma concentration (12.5 mg Δ8-THCV dose, Mean (SD, %CV)): 0 (±0, --) ng/mL
- plasma concentration (12.5 mg Δ8-THCV dose, Median (IQ Range)): 0 (0–0) ng/mL
- plasma concentration (25 mg Δ8-THCV dose, Mean (SD, %CV)): 0 (±0, --) ng/mL
- plasma concentration (25 mg Δ8-THCV dose, Median (IQ Range)): 0 (0–0) ng/mL
- plasma concentration (50 mg Δ8-THCV dose, Mean (SD, %CV)): 0 (±0, --) ng/mL
- plasma concentration (50 mg Δ8-THCV dose, Median (IQ Range)): 0 (0–0) ng/mL
- plasma concentration (100 mg Δ8-THCV dose, Mean (SD, %CV)): 0 (±0, --) ng/mL
- plasma concentration (100 mg Δ8-THCV dose, Median (IQ Range)): 0 (0–0) ng/mL
- plasma concentration (200 mg Δ8-THCV dose, Mean (SD, %CV)): 0 (±0, --) ng/mL
- plasma concentration (200 mg Δ8-THCV dose, Median (IQ Range)): 0 (0–0) ng/mL
- concentration at 0.5 h [5]: 0 ng/mL
- concentration at 0.5 h [6]: 0 ng/mL
- concentration at 1 h [5]: 0 ng/mL
- concentration at 1 h [6]: 0 ng/mL
- concentration at 2 h [5]: 0 ng/mL
- concentration at 2 h [6]: 0 ng/mL
- concentration at 4 h [5]: 0 ng/mL
- concentration at 4 h [6]: 0 ng/mL
- concentration at 6 h [5]: 0 ng/mL
- concentration at 6 h [6]: 0 ng/mL
- concentration at 8 h [5]: 0 ng/mL
- concentration at 8 h [6]: 0 ng/mL
- concentration at 0.5 h [7]: 0 ng/mL
- concentration at 0.5 h [8]: 0 ng/mL
- concentration at 1 h [7]: 0 ng/mL
- concentration at 1 h [8]: 0 ng/mL
- concentration at 2 h [7]: 0 ng/mL
- concentration at 2 h [8]: 0 ng/mL
- concentration at 4 h [7]: 0 ng/mL
- concentration at 4 h [8]: 0 ng/mL
- concentration at 6 h [7]: 0 ng/mL
- concentration at 6 h [8]: 0 ng/mL
- concentration at 8 h [7]: 0 ng/mL
- concentration at 8 h [8]: 0 ng/mL
- concentration at 0.5 h [9]: 0 ng/mL
- concentration at 0.5 h [10]: 0 ng/mL
- concentration at 1 h [9]: 0 ng/mL
- concentration at 1 h [10]: 0 ng/mL
- concentration at 2 h [9]: 0 ng/mL
- concentration at 2 h [10]: 0 ng/mL
- concentration at 4 h [9]: 0 ng/mL
- concentration at 4 h [10]: 0 ng/mL
- concentration at 6 h [9]: 0.1 ng/mL
- concentration at 6 h [10]: 0 ng/mL
- concentration at 8 h [9]: 0 ng/mL
- concentration at 8 h [10]: 0 ng/mL
- concentration at 0.5 h [11]: 0 ng/mL
- concentration at 0.5 h [12]: 0 ng/mL
- concentration at 1 h [11]: 0.1 ng/mL
- concentration at 1 h [12]: 0 ng/mL
- concentration at 2 h [11]: 0.1 ng/mL
- concentration at 2 h [12]: 0 ng/mL
- concentration at 4 h [11]: 0.3 ng/mL
- concentration at 4 h [12]: 0 ng/mL
- concentration at 6 h [11]: 0.3 ng/mL
- concentration at 6 h [12]: 0 ng/mL
- concentration at 8 h [11]: 0 ng/mL
- concentration at 8 h [12]: 0 ng/mL
- concentration at 0.5 h [13]: 0 ng/mL
- concentration at 0.5 h [14]: 0 ng/mL
- concentration at 1 h [13]: 0 ng/mL
- concentration at 1 h [14]: 0 ng/mL
- concentration at 2 h [13]: 0.6 ng/mL
- concentration at 2 h [14]: 0 ng/mL
- concentration at 4 h [13]: 0.9 ng/mL
- concentration at 4 h [14]: 0.7 ng/mL
- concentration at 6 h [13]: 0.7 ng/mL
- concentration at 6 h [14]: 0.6 ng/mL
- concentration at 8 h [13]: 0.6 ng/mL
- concentration at 8 h [14]: 0 ng/mL
- AUC(0-t) [15]: 1.4 ng·h/mL
- Cmax [15]: 1.1 ng/mL
- AUC(0-t) [16]: 1.2 ng·h/mL
- Cmax [16]: 0.9 ng/mL
- MRT [15]: 4.4 h
- Tmax [15]: 4.6 h
- MRT [16]: 4.4 h
- Tmax [16]: 5 h
- AUC(0-t) [17]: 4.8 ng·h/mL
- Cmax [17]: 2 ng/mL
- AUC(0-t) [18]: 4.5 ng·h/mL
- Cmax [18]: 1.7 ng/mL
- MRT [17]: 4.5 h
- Tmax [17]: 4.9 h
- MRT [18]: 4.6 h
- Tmax [18]: 4 h
- number of positive plasma samples (of 504 plasma samples from 15 participants after oral Δ8-THCV): 42
- concentration in representative plasma sample (one subject after oral Δ8-THCV in MCT oil, Figure A1): 2.4 ng/mL
